Source: ChEMBL document CHEMBL4602671, “Modified Eremophilanes from Parasenecio hastatus and Their Neuroprotective Activities” (J Nat Prod, 2020)
Active and inactive are the calls of the source. No cut-off for these calls is given here.

Assays:
SH-SY5Y [1] = assay: Neuroprotective activity in human SH-SY5Y cells assessed as reduction in H2O2-induced cell death at 1 uM preincubated for 1 hr followed by H2O2 addition and measured after 4 hrs by MTT assay relative to control; type: functional; design: scale not given: the % may be the effect or the level left
SH-SY5Y [2] = assay: Neuroprotective activity in human SH-SY5Y cells assessed as reduction in H2O2-induced cell death at 10 uM preincubated for 1 hr followed by H2O2 addition and measured after 4 hrs by MTT assay; type: functional, cell-based
SH-SY5Y [3] = assay: Neuroprotective activity in human SH-SY5Y cells assessed as reduction in H2O2-induced cell death at 100 uM preincubated for 1 hr followed by H2O2 addition and measured after 4 hrs by MTT assay; type: functional, cell-based
SH-SY5Y [4] = assay: Cytotoxicity against human SH-SY5Y cells at 100 uM; type: cell-based

Structure (SMILES): COc1c2cccc(C)c2c(C)c2c(C)coc12
- Activity (SH-SY5Y [1]): >10%
- Activity (SH-SY5Y [2]): Active
- Activity (SH-SY5Y [3]): Active

Structure (SMILES): CCOCc1c2c(C)cccc2c(OC)c2occ(C)c12
- Activity (SH-SY5Y [1]): inactive
- Activity (SH-SY5Y [2]): Active
- Activity (SH-SY5Y [3]): Active

Structure (SMILES): COc1c2c(c(C)c3c(C)coc13)[C@@H](C)[C@@H]1O[C@@H]1[C@H]2O
- Activity (SH-SY5Y [1]): inactive
- Activity (SH-SY5Y [2]): Active
- Activity (SH-SY5Y [3]): Active

Structure (SMILES): C/C=C(/C)C(=O)OC[C@@H]1c2c(c(OC)c3occ(C)c3c2C)C=C[C@@H]1O
- Activity (SH-SY5Y [1]): >10%
- Activity (SH-SY5Y [2]): Active
- Activity (SH-SY5Y [3]): Active

Structure (SMILES): C/C=C(/C)C(=O)OC[C@H]1c2c(c(OC)c3occ(C)c3c2C)C=C[C@H]1OC
- Activity (SH-SY5Y [1]): >10%
- Activity (SH-SY5Y [2]): Active
- Activity (SH-SY5Y [3]): Active

Structure (SMILES): COc1c(O)c(C(C)=O)c(C)c2c1C=CC[C@@H]2C
- Activity (SH-SY5Y [1]): inactive
- Activity (SH-SY5Y [2]): Active
- Activity (SH-SY5Y [3]): Active

Structure (SMILES): Cc1c(C)c2c(c(C)c1O)CCC(C)(C(=O)O)O2 (stereo not given)
- Activity (SH-SY5Y [1]): inactive

Structure (SMILES): COc1c2c(c(C)c3c(C)coc13)[C@@H](C)[C@@H](O)C=C2
- Activity (SH-SY5Y [1]): >10%
- Activity (SH-SY5Y [2]): Active
- Activity (SH-SY5Y [3]): Active

Structure (SMILES): COc1c2c(c(C)c3c(C)coc13)[C@H](CO)[C@H](O)C=C2
- Activity (SH-SY5Y [1]): >10%
- Activity (SH-SY5Y [2]): Active
- Activity (SH-SY5Y [3]): Active

Structure (SMILES): COc1c2c(c(C)c3c(C)coc13)[C@@H](C)[C@@H](O)CC2
- Activity (SH-SY5Y [1]): inactive
- Activity (SH-SY5Y [2]): Active
- Activity (SH-SY5Y [3]): Active

Structure (SMILES): COc1c(O)c(C(C)=O)c(C)c2c1C=C[C@H](O)[C@@H]2C
- Activity (SH-SY5Y [1]): inactive
- Activity (SH-SY5Y [2]): Active
- Activity (SH-SY5Y [3]): Active

Structure (SMILES): COC[C@H]1c2c(c(OC)c3occ(C)c3c2C)C=C[C@H]1O
- Activity (SH-SY5Y [1]): >10%
- Activity (SH-SY5Y [2]): Active
- Activity (SH-SY5Y [3]): Active

Structure (SMILES): COCc1c2c(C)cccc2c(OC)c2occ(C)c12
- Activity (SH-SY5Y [1]): >10%
- Activity (SH-SY5Y [2]): Active
- Activity (SH-SY5Y [3]): Active

Structure (SMILES): COc1c(O)c(C(C)=O)c(C)c2c(C)cccc12
- Activity (SH-SY5Y [1]): inactive
- Activity (SH-SY5Y [2]): Active
- Activity (SH-SY5Y [3]): Active

Structure (SMILES): Cc1cccc2c1[C@@](C)(O)c1c(C)coc1C2=O
- Activity (SH-SY5Y [1]): Active
- Activity (SH-SY5Y [2]): Active
- Activity (SH-SY5Y [4]): Toxic

Structure (SMILES): COc1c2cccc(C)c2c(CO)c2c(C)coc12
- Activity (SH-SY5Y [1]): inactive
- Activity (SH-SY5Y [2]): Active
- Activity (SH-SY5Y [3]): Active

Structure (SMILES): Cc1cccc2c1C(=O)c1c(C)coc1C2=O
- Activity (SH-SY5Y [1]): inactive
- Activity (SH-SY5Y [2]): Active
- Activity (SH-SY5Y [3]): Active

Structure (SMILES): COc1c2cccc(C)c2cc2c(C)coc12
- Activity (SH-SY5Y [1]): inactive
- Activity (SH-SY5Y [2]): Active
- Activity (SH-SY5Y [3]): Active

Structure (SMILES): C/C=C(/C)C(=O)OCc1c(C(C)=O)c(O)c(OC)c2c1[C@@H](C)[C@@H](O)C=C2
- Activity (SH-SY5Y [1]): inactive
- Activity (SH-SY5Y [2]): Active
- Activity (SH-SY5Y [3]): Active

Structure (SMILES): COC[C@@]1(O)c2c(C)cccc2C(=O)c2occ(C)c21
- Activity (SH-SY5Y [1]): Active
- Activity (SH-SY5Y [4]): Toxic

Structure (SMILES): Cc1coc2c1[C@](C)(O)c1c(ccc(O)c1C)C2=O
- Activity (SH-SY5Y [1]): Active
- Activity (SH-SY5Y [2]): Active
- Activity (SH-SY5Y [4]): Toxic
